Measured values taken from patent US20080107619A1, “Carbohydrate based cellulase inhibitors as feeding stimulants in termites” (University of Florida Research Foundation, Inc., priority 2006, published 2008).
Entries after “also recorded” stand apart in the source; their conditions may differ.

Tested on: R. flavipes worker termites
Test: No-choice Petri dish in vivo feeding bioassay (feeding and mortality, 24 days)
Settings: for Average Feeding in mg per Live Termite (std. err.) days 1-8 / Average Feeding in mg per Live Termite (std. err.) days 9-16 / Average Feeding in mg per Live Termite (std. err.) days 17-24 / Normalized Avg. Totals: 1st ROUND (lab colony); for Normalized Avg. Totals: relative to control [0] average
Description: R. flavipes colonies were collected from the University of Florida campus during spring and summer 2006. Colonies were maintained in sealed plastic boxes (30×24×10 cm) at 22±1° C. and 69±1% RH. Colonies were maintained without soil and provisioned with moist brown paper towels and wood shims. Colonies that were acclimated under the above conditions for <2 months are referred to as “field colonies”, while those held for >6 months are referred to as “lab colonies”. Unless otherwise stated, all studies reported here were run with lab colonies.
Two different termite colonies were used. A lab colony was used in bioassays that tested the effects of CBI and FMG; this was the same colony used in cellulase optimization studies, cellulase distribution studies, and for […] determination. The other colony was a field colony, which was used to repeat the FMG assay along side FMCB. The no-choice feeding bioassay was derived from a previously-developed and slightly modified caste differentiation assay reported by M. E. Scharf, et al. in “Caste differentiation responses of two sympatric Reticulitermes termite species to juvenile hormone homologs and synthetic juvenoids in two laboratory assays.” Insectes Soc. […] Acad. Sci. USA, 103 (2006) 4499-504.
Prior to treatment, paper disks 30 were weighed. Treatments and controls were held in complete darkness at approximately 26±1° C. and 69±1% RH. The inhibitor concentrations tested were 75, 50, 25, 10, 5, 1, 0.5, and 0.1 mM (approximately […] wt/wt). For each inhibitor, paper disks were treated with 50 μl of a given concentration. Control disks received 50 μl methanol alone. Treated papers were allowed to dry in a fume hood for 30 min before placing in dishes, wetting with 25 μl water, and adding 15 termites.
Termite feeding on the filter papers was readily observable and quantifiable from the bioassays. Average feeding through the entire bioassay was summed within each replicate and calculated as a percentage of feeding relative to untreated controls, then averaged across replicates.
The experimental design consisted of three replicate dishes per concentration. All assays were carried out for a total of 24 days. Termite mortality and filter paper moisture were monitored every 4th day. Every 8th day, old paper disks were replaced with new ones. These new filter paper disks were treated with identical inhibitor concentrations. The removed filter paper disks 30, showing the results of termite feeding (FIG. 6), were dried and re-weighed. At the end of each assay, data were summarized as cumulative feeding per live termite and cumulative termite mortality. Data were analyzed by non-parametric t-tests (p<0.05) with commercially-available software for use in statistical analysis, designed by SAS Institute, Cary, N.C.
FIGS. 7A-7F provide graphic data on in vivo feeding bioassays conducted with the carbohydrate-based cellulase inhibitors to assess the impact on termite feeding and survivorship. Feeding results are expressed as the cumulative percent of untreated controls through 24 days. Mortality results are expressed as percent mortality after 24 days. […] Error bars represent standard error of the mean.

OC[C@@H]1[C@@H](O[C@@H]2O[C@H](CO)[C@@H](O)[C@H](O)[C@H]2O)[C@H](O)[C@@H](O)c2nccn21 [CBI, cellobioimidazole]
Average Feeding in mg per Live Termite (std. err.) days 1-8 (0.1 mM test conc.): 0.44 (0.04) mg per Live Termite
Average Feeding in mg per Live Termite (std. err.) days 9-16 (0.1 mM test conc.): 0.42 (0.11) mg per Live Termite
Average Feeding in mg per Live Termite (std. err.) days 17-24 (0.1 mM test conc.): 0.45 (0.04) mg per Live Termite
Normalized Avg. Totals (0.1 mM test conc.): 1.98
Average Feeding in mg per Live Termite (std. err.) days 1-8 (0.5 mM test conc.): 0.45 (0.03) mg per Live Termite
Average Feeding in mg per Live Termite (std. err.) days 9-16 (0.5 mM test conc.): 0.51 (0.06) mg per Live Termite
Average Feeding in mg per Live Termite (std. err.) days 17-24 (0.5 mM test conc.): 0.33 (0.04) mg per Live Termite
Normalized Avg. Totals (0.5 mM test conc.): 1.02
Average Feeding in mg per Live Termite (std. err.) days 1-8 (1 mM test conc.): 0.49 (0.12) mg per Live Termite
Average Feeding in mg per Live Termite (std. err.) days 9-16 (1 mM test conc.): 0.53 (0.03) mg per Live Termite
Average Feeding in mg per Live Termite (std. err.) days 17-24 (1 mM test conc.): 0.35 (0.04) mg per Live Termite
Normalized Avg. Totals (1 mM test conc.): 1.05
Average Feeding in mg per Live Termite (std. err.) days 1-8 (5 mM test conc.): 0.66 (0.05) mg per Live Termite
Average Feeding in mg per Live Termite (std. err.) days 9-16 (5 mM test conc.): 0.55 (0.11) mg per Live Termite
Average Feeding in mg per Live Termite (std. err.) days 17-24 (5 mM test conc.): 0.40 (0.89) mg per Live Termite
Normalized Avg. Totals (5 mM test conc.): 1.34
Average Feeding in mg per Live Termite (std. err.) days 1-8 (10 mM test conc.): 0.38 (0.05) mg per Live Termite
Average Feeding in mg per Live Termite (std. err.) days 9-16 (10 mM test conc.): 0.43 (0.05) mg per Live Termite
Average Feeding in mg per Live Termite (std. err.) days 17-24 (10 mM test conc.): 0.33 (0.05) mg per Live Termite
Normalized Avg. Totals (10 mM test conc.): 1.03
Average Feeding in mg per Live Termite (std. err.) days 1-8 (25 mM test conc.): 0.23 (0.01) mg per Live Termite
Average Feeding in mg per Live Termite (std. err.) days 9-16 (25 mM test conc.): 0.47 (0.44) mg per Live Termite
Average Feeding in mg per Live Termite (std. err.) days 17-24 (25 mM test conc.): 0.39 (0.01) mg per Live Termite
Normalized Avg. Totals (25 mM test conc.): 0.95
Average Feeding in mg per Live Termite (std. err.) days 1-8 (50 mM test conc.): 0.17 (0.03) mg per Live Termite
Average Feeding in mg per Live Termite (std. err.) days 9-16 (50 mM test conc.): 0.41 (0.05) mg per Live Termite
Average Feeding in mg per Live Termite (std. err.) days 17-24 (50 mM test conc.): 0.38 (0.03) mg per Live Termite
Normalized Avg. Totals (50 mM test conc.): 0.85
highest mortality observed (0.05 and 0.2% concentrations, after 24 days, FIG. 10B): around 20%
Average Feeding in mg per Live Termite (std. err.) days 1-8 (75 mM test conc.): 0.16 (0.01) mg per Live Termite
Average Feeding in mg per Live Termite (std. err.) days 9-16 (75 mM test conc.): 0.24 (0.05) mg per Live Termite
Average Feeding in mg per Live Termite (std. err.) days 17-24 (75 mM test conc.): 0.27 (0.01) mg per Live Termite
Normalized Avg. Totals (75 mM test conc.): 0.59
mortality (1-5 mM (0.05-0.2% wt/wt), after 24 days): approximately 20%
Effect on feeding (cumulative percent of untreated controls through 24 days) (across tested concentrations 0.1-75 mM, FIGS. 7A-7C, 8A-8B): both inhibitory and stimulatory effects, depending on concentration; also recorded: either inhibitory or stimulatory to feeding, depending on concentration
cumulative termite mortality (comparison between inhibitors) (after 24 days, FIGS. 7D-7F, 10A-10B): substantially greater than the mortality caused by FMG
mortality, one replicate (one replicate of the 0.05% concentration, after 24 days): over 30%
